Experimental data as given in US20190099401A1, “METHOD FOR PROTECTING CORNEAL ENDOTHELIAL CELLS FROM THE IMPACT CAUSED BY AN EYE SURGERY” (priority 2017, published 2019).
Where “and” joins values, the source holds several entries; their conditions need not be identical. Identical values can stand only once.

Key:
ARPE19 cells = assay: Oxidative stress test (cellular ROS detection assay kit); type: cell-based; conditions: after 5 days of culturing, FIG. 3
Method: (§1) The oxidative stress of ARPE19 and B4G12 cells were tested using cellular ROS detection assay kit (Deep Red Fluorescence, ab186029) after 5 days of culturing. The tested groups were the same as the abovementioned control group 1, control group 2, comparative group, and treatment group. The test results were shown in FIG. 3, wherein the red fluorescent light represented the existence of oxidative stress.

B4G12 cells = assay: as above; type: cell-based; conditions: after 5 days of culturing, FIG. 3
Method: as §1

[1] = system: corneal endothelial cells; assay: Phacoemulsification in patients with low corneal endothelial cell density; type: in vivo; conditions: 28 days four times a day before phacoemulsification, one patient eye
Text: Please refer to the following Table. 1 showing the age and sex of the patients, concentration of ascorbic acid in the ophthalmic composition, cause of low corneal endothelial cell density (ECD), total energy of phacoemulsification, duration time of phacoemulsification, corneal endothelial cell density before and after the phacoemulsification, and the percentage of cell loss. […] The ratio of cell loss after may be down regulated to 6.2±1.9%.

[2] = system: retinal pigment epithelial cell line (ARPE19); assay: Cell experiment: paraquat-induced apoptosis, cell morphology; type: cell-based; conditions: for cell morphology (apoptosis, vesicle formation) / cell morphology (protective effect): FIG. 1
Method: (§2) In the present embodiment, retinal pigment epithelial cell line (ARPE19) and corneal endothelial cell line (B4G12) were subjected to the cell experiment. The B4G12 cells were cultured with the cell culture medium comprising Human Endothelial-SFM, 2% of fetal bovine serum (FBS), and 10 ng/ml of basic fibroblast growth factor (bFGF). The culture medium was changed every two days. The ARPE 19 cells were cultured with the cell culture medium comprising Dulbecco's Modified Eagle Medium Nutrient Mixture F-12 (DMEM-F12), 10% of FBS, 0.5% of ampicillin, and 0.125% of gentamycin. The culture medium was changed every two days.
(§3) 2 mM of paraquat was added to the culture medium of the ARPE19 cells, and 0.2 mM of paraquat was added to the culture medium of the B4G12 cells to induce apoptosis of the cells. 0.1, 0.5, 1.0, and 2.0 mM of ascorbic acid were then added respectively to the culture medium of the cells for 5 days and the cell morphologies thereof were shown in FIG. 1. […] Accordingly, the lowest effective concentration of ascorbic acid is 1.0 mM.
(§4) Further, ARPE19 cells and B4G12 cells were divided respectively into four groups, which comprises a control group 1 without added ascorbic acid or paraquat; a control group 2 added with ascorbic acid but without paraquat; a comparative group added with paraquat but without ascorbic acid; and a treatment group added with ascorbic acid and paraquat, wherein 1 mM of ascorbic acid were added to the control groups 2 and treatment groups, 2 mM of paraquat were added to the comparative group and the treatment group of ARPE19 cells, and 0.2 mM of paraquat were added to the comparative group and the treatment group of B4G12 cells.

[3] = system: corneal endothelial cell line (B4G12); assay: as above; type: cell-based; conditions: for cell morphology (apoptosis, vesicle formation) / cell morphology (protective effect): FIG. 1
Method: as §2, §3, §4

[4] = 1 mM ascorbic acid without paraquat
[5] = control group 2: 1 mM ascorbic acid without paraquat, FIG. 2

Question: `O=C1O[C@H]([C@@H](O)CO)C(O)=C1O` [ascorbic acid] was tested. Which “oxidative stress (red fluorescence, ROS)” value (ARPE19 cells; 1 mM ascorbic acid + 2 mM paraquat) did it give?
Answer: sufficiently decrease the oxidative stress caused by paraquat

Question: What about the “oxidative stress (red fluorescence, ROS)” value (ARPE19 cells; [4]) of the same compound?
Answer: did not increase significantly

Question: And the “oxidative stress (red fluorescence, ROS)” value (B4G12 cells; 1 mM ascorbic acid + 0.2 mM paraquat)?
Answer: sufficiently decrease the oxidative stress caused by paraquat

Question: And the “oxidative stress (red fluorescence, ROS)” value (B4G12 cells; [4])?
Answer: did not increase significantly

Question: And the Cell lost ([1]; 20 mg/cc ascorbic acid)?
Answer: 5.6% and 9.3%

Question: What about the “Post-op corneal ECD” value ([1]; 20 mg/cc ascorbic acid) of the same compound?
Answer: 981 cells/mm^2 and 1239 cells/mm^2

Question: And the Cell lost ([1]; 50 mg/cc ascorbic acid)?
Answer: 3.6% and 5.3% and 8.6% and 8.0% and 7.6% and 6.2% and 5.5% (2×) and 6.9% and 5.1%

Question: What about the “Post-op corneal ECD” value ([1]; 50 mg/cc ascorbic acid) of the same compound?
Answer: 1355 cells/mm^2 and 983 cells/mm^2 and 1238 cells/mm^2 and 1119 cells/mm^2 and 1249 cells/mm^2 and 1181 cells/mm^2 and 1724 cells/mm^2 and 1112 cells/mm^2 and 1649 cells/mm^2 and 838 cells/mm^2

Question: And the “cell morphology (apoptosis, vesicle formation)” value ([2]; 0.1 mM ascorbic acid, 2 mM paraquat, 5 days)?
Answer: showed cell apoptosis and vesicle formation

Question: And the “cell morphology (apoptosis, vesicle formation)” value ([2]; 0.5 mM ascorbic acid, 2 mM paraquat, 5 days)?
Answer: showed cell apoptosis and vesicle formation

Question: And the “cell morphology (protective effect)” value ([2]; 1.0 mM ascorbic acid, 2 mM paraquat, 5 days)?
Answer: showed the protective effect for the cells

Question: What about the “cell morphology (protective effect)” value ([2]; 2.0 mM ascorbic acid, 2 mM paraquat, 5 days) of the same compound?
Answer: showed the protective effect for the cells

Question: And the lowest effective concentration ([2]; 2 mM paraquat, 5 days)?
Answer: 1.0 mM

Question: And the cell apoptosis [2, 5]?
Answer: did not show significant cell apoptosis

Question: And the “cell apoptosis and cell vesicle generation” value ([2]; treatment group: 1 mM ascorbic acid + 2 mM paraquat, FIG. 2)?
Answer: cell apoptosis and cell vesicle generation were not significant

Question: And the “cell morphology (apoptosis, vesicle formation)” value ([3]; 0.1 mM ascorbic acid, 0.2 mM paraquat, 5 days)?
Answer: showed cell apoptosis and vesicle formation

Question: What about the lowest effective concentration ([3]; 0.2 mM paraquat, 5 days) of the same compound?
Answer: 1.0 mM

Question: And the “cell morphology (apoptosis, vesicle formation)” value ([3]; 0.5 mM ascorbic acid, 0.2 mM paraquat, 5 days)?
Answer: showed cell apoptosis and vesicle formation

Question: What about the “cell morphology (protective effect)” value ([3]; 1.0 mM ascorbic acid, 0.2 mM paraquat, 5 days) of the same compound?
Answer: showed the protective effect for the cells

Question: And the “cell morphology (protective effect)” value ([3]; 2.0 mM ascorbic acid, 0.2 mM paraquat, 5 days)?
Answer: showed the protective effect for the cells

Question: What about the cell vesicles ([3]; control group 2: 1 mM ascorbic acid without paraquat (same in control group 1), FIG. 2) of the same compound?
Answer: only some cell vesicles were generated

Question: And the cell apoptosis [3, 5]?
Answer: did not show significant cell apoptosis

Question: And the “cell apoptosis and cell vesicle generation” value ([3]; treatment group: 1 mM ascorbic acid + 0.2 mM paraquat, FIG. 2)?
Answer: cell apoptosis and cell vesicle generation were not significant
